pEC50, pIC50: −log10 of the molar value.
Legend:
[1] = target: T1, IN (integrase) (Human immunodeficiency virus type 1 group M subtype B, UniProt P12497); settings: cited from earlier work
T1 construct: HIV-1 recombinant IN (HIV-1NL4-3 Integrase, NIH AIDS Reagent program Catalog No:2959); purchased NIH AIDS Reagent program 2959

[2] = test system: HIV; settings: ex-vivo viral inhibition assay; cited from earlier work
[3] = test system: HIV-1 MC99IIIBΔTat-Rev; experiment: viral inhibition assay (p24 ELISA, CEM-TART cells), FIG. 4; format: cell-based; settings: Human immunodeficiency virus 1
Source text: The novel compounds of the present invention can be further evaluated for their ability to inhibit viral replication in ex-vivo assays. Most common of these include determining the viral replication in either purified human CD4+ T cell blasts infected with HIV in the presence or absence of various concentrations of inhibitors or HIV infected MT4 cell line treated with different concentration of inhibitors. A standard laboratory method in screening for inhibitors against HIV in biological assays involves the use of recombinant HIV strain that can replicate only in the supporting complementing cell line. This model system allows the examination of HIV viral replication in a biologically contained manner and is suitable for inhibitor screening. The method is described briefly below. The recombinant HIV-1 strain (HIV-1 MC99IIIBΔTat-Rev; NIH Aids Reagent Program, catalog No: 1943) is genetically engineered to replicate only in supporting recombinant cell lines (CEM-TART Cells, NIH Aids Reagent Program catalog No 1944). The construction of the recombinant mutant virus, the supporting cell line and the biological assay are described in detail elsewhere. […] The extent of viral replication can be determined by measuring the soluble viral p24 protein present in the culture supernatant collected at 24, 48, 72 and 96-hr post infection using commercial ELISA kits.

| SMILES | inhibition of 3′ processing [1] | inhibition of strand transfer reaction [1] | pEC50 [2] | pIC50 [3] |
| --- | --- | --- | --- | --- |
| O=C(O)C(=O)CC(=O)c1cc(OCc2ccccc2)cc(OCc2ccccc2)c1 [Compound 6] | do not inhibit 3′ processing | inhibit strand transfer reaction |  |  |
| O=C(O)C(=O)CC(=O)c1cccn1Cc1ccc(F)cc1 [Compound 8] | do not inhibit 3′ processing | inhibit strand transfer reaction |  |  |
| O=C(/C=C(\O)c1nn[nH]n1)c1c[nH]c2ccc(Cl)cc12 [Compound 10] | inhibit both reactions | inhibit both reactions | 6.15 |  |
| O=C(O)CN(CCN(CCN(CC(=O)O)CC(=O)O)Cc1ccc2cccc(O)c2n1)CC(=O)O [Compound 16] |  |  |  | 4.71 |
